Reference: paper PMC8695447, “Novel Small Molecules Capable of Blocking mtRAS-Signaling Pathway” (Frontiers in Oncology, 2021)

How the values were obtained:
Assay type in all cases: cell-based
[1] = tested on: MDA-MB-231 (KRAS-G13D); assay: Anti-proliferation assay on MDA-MB-231; settings: Homo sapiens, MDA-MB-231; 72 h treatment; average with SD (n = 3, duplicate)
Protocol: (§1) Ba/F3-parental, OCI-AML3, U397 cells were purchased from DSMZ. MDA-MB-231, HCT-116, AsPC-1, H358, HT-29, SW480, and DU-145 cells were obtained from KCLB. MDA-MB-468 cells were obtained from ATCC. All cells were maintained in RPMI with 10% FBS and antibiotics. Cells were grown in a humidified 5% CO2 incubator at 37°C. Ba/F3-parental cells were grown in the presence of 10 ng/ml IL-3. NRAS-G12D or NRAS-G12V transformed Ba/F3 cell lines (Ba/F3-NRAS-G12D, and Ba/F3-NRAS-G12V, respectively) were cultured without IL-3, which were established by the procedure described as previously ([30]).
(§2) Approximately 3.0 × 10^3 cells/well were seeded in a 96-well cell culture plate. After stabilization, 1/3 serially diluted compound in DMSO was treated to the cell. […] All GI50 values were obtained in duplicate with three independent assays and averages with standard deviation are presented.

[2] = tested on: HT-29 (KRAS-Q61L); assay: Anti-proliferation assay on HT-29; settings: Homo sapiens, HT-29; 72 h treatment; average with SD (n = 3, duplicate)
Protocol: as §1, §2

[3] = tested on: U937 (KRAS, NRAS-wt); assay: Anti-proliferation assay on U937; settings: Homo sapiens, U-937; 72 h treatment; average with SD (n = 3, duplicate)
Protocol: as §1, §2

[4] = tested on: phospho-AKT, -MEK, -ERK in cancer cells harboring mtRAS; assay: Western blot, phospho-AKT, -MEK, -ERK in cancer cells harboring mtRAS; settings: 0.1, 1, and 10 μM for 2 h
Protocol: Approximately 1 × 10^6 cells per well were seeded in a 6-well cell culture plate. After cell adhesion, each compounds were treated for 2 h with indicated concentration and conducted brief washing twice by ice-cold PBS. Cells were lysed by NP40 buffer (50 mM Tris–HCl pH 7.4, 1% NP40, 2 mM EDTA, 150 mM NaCl) in the presence of protease inhibitor cocktail (Roche, #11873580001) and phosphatase inhibitor cocktail (Roche, #04906837001). Each sample was loaded with same amount of total protein and separated by SDS-PAGE gel. After transferred to nitrocellulose membrane, blocking with 5% skim milk (in TBS/T) was followed. The membrane was incubated 4°C for overnight with uniformly diluted primary antibodies at 1:1,000 (v/v) in TBS/T. The following primary antibodies were used: anti-p-AKT (Cell Signaling, #9271), anti-p-ERK1/2 (Cell Signaling, #4370), anti-PARP (Cell Signaling, #9542), anti-GAPDH (Cell Signaling, #5174), anti-p-70S6K1 (Cell Signaling, #9204), anti-p-JNK(Cell Signaling, #9251), anti-p-p38 (Cell Signaling, #9216), and anti-p-MEK1/2 (Santa Cruz, sc-81503). […] Chemiluminescence signals were detected by ImageQuant™ LAS 4000 (GE Healthcare). […]

[5] = tested on: cleaved PARP in Ba/F3-NRAS-G12D and Ba/F3-NRAS-G12V cells; assay: Western blot, cleaved PARP in Ba/F3 cells transformed with mtRAS; settings: 1 μM, 24 h
Protocol: (§3) Approximately 1 × 10^6 cells per well were seeded in a 6-well cell culture plate. After cell adhesion, each compounds were treated for 2 h with indicated concentration and conducted brief washing twice by ice-cold PBS. Cells were lysed by NP40 buffer (50 mM Tris–HCl pH 7.4, 1% NP40, 2 mM EDTA, 150 mM NaCl) in the presence of protease inhibitor cocktail (Roche, #11873580001) and phosphatase inhibitor cocktail (Roche, #04906837001). Each sample was loaded with same amount of total protein and separated by SDS-PAGE gel. After transferred to nitrocellulose membrane, blocking with 5% skim milk (in TBS/T) was followed. […] Chemiluminescence signals were detected by ImageQuant™ LAS 4000 (GE Healthcare).
Figure 3 (A, B) The effects of SIJ1795 and SIJ1772 on apoptosis induction in Ba/F3 cells transformed with mtRAS (NRAS-G12D and NRAS-G12V). […] (C) Apoptotic cell population (annexin V-positive) was determined by flow cytometry analysis (n = 3). […] Statistical significance was calculated by a one-way ANOVA analysis (**p < 0.01, ***p < 0.001).

[6] = tested on: cleaved PARP in cancer cells harboring mtRAS; assay: Western blot, cleaved PARP in cancer cells harboring mtRAS; settings: 1 μM, 24 h
Protocol: as §3
Figure 4 The effects of (A) SIJ1795 and (B) SIJ1772 on apoptosis induction in cancer cells harboring mtRAS. […] (C) Apoptotic cell population (annexin V-positive) was determined by flow cytometry analysis (n = 3). […] Statistical significance was determined using a one-way ANOVA analysis (*p < 0.05, **p < 0.01, ***p < 0.001).

[7] = tested on: cancer cells with mtRAS including H358, AsPC-1, DU-145, SW480, and MDA-MB-231; assay: Migration assay (scratch assay); settings: 0.01 µM
Protocol: For migration assay, scratch assay was conducted. Each cells (2.0 × 10^5 cells/well) were seeded in 24-well plates. After cellular attachment, cells were scratched with a SPLScarTM Scratcher (SPL Life Sciences, #201924) and the detached cells were removed by PBS washing twice. Cells were incubated in complete media with 0.01 μM concentrations of each compounds for indicated time. The images were acquired before and after incubation with compounds (40× magnification), and percent of migration were accessed using ImageJ (n = 3).
Figure 6 The effects of SIJ1795 and SIJ1772 on migration and invasion activities of cancer cells harboring mtRAS. (A) Scratch assay result for cell migration ability determination. Each cell monolayers were scratched and incubated with test compounds at 0.01 μM. After 8 h (MDA-MB-231) or 24 h (DU-145, SW480, HCT-116) or 48 h (AsPC-1) or 72 h (HT-29), cells were stained with crystal violet. Migrated areas were photographed with 40× magnification. Migrated area was determined by ImageJ (n = 3). (B) Boyden chamber assay result for cell invasion ability determination. Indicated compounds of 0.01 μM were treated and incubated for 48 h Invaded cells were stained by crystal violet and photographed. Stained cells were counted by ImageJ (n = 3). Statistical significance was determined using a one-way ANOVA analysis (*p < 0.05, **p < 0.01, ***p < 0.001, ****p < 0.0001).

| GI50 [1] [nM] | GI50 [2] [nM] | GI50 [3] [nM] | Compound | signaling inhibitory activities in cancer cells with mtRAS relative to GNF-7 [4] | cleaved PARP level in Ba/F3-NRAS-G12D and Ba/F3-NRAS-G12V cells [5] | level of cleaved PARP in cancer cells harboring mtRAS [6] | reduction in migration capabilities [7] |
| --- | --- | --- | --- | --- | --- | --- | --- |
| 58 ± 1 | 192 ± 94 | 9590 ± 832 | Cc1ccc(NC(=O)c2cccc(C(F)(F)F)c2)cc1N1Cc2cnc(Nc3cnn(C4CCN(S(C)(=O)=O)CC4)c3)nc2N(C)C1=O [SIJ1772, N-(4-Methyl-3-(1-methyl-7-((1-(1-(methylsulfonyl)piperidin-4-yl)-1H-pyrazol-4-yl)amino)-2-oxo-1,4-dihydropyrimido[4,5-d]pyrimidin-3(2H)-yl)phenyl)-3-(trifluoromethyl)benzamide] | comparable to those of GNF-7 | increased cleaved PARP level | notably increased | over 50% |
| 53 ± 8 | 154 ± 42 | 1000 ± 126 | CCN1CCN(c2cccc(Nc3ncc4c(n3)N(C)C(=O)N(c3cc(NC(=O)c5cccc(C(F)(F)F)c5)ccc3C)C4)c2)CC1 [SIJ1795, N-(3-(7-((3-(4-Ethylpiperazin-1-yl)phenyl)amino)-1-methyl-2-oxo-1,4-dihydropyrimido[4,5-d]pyrimidin-3(2H)-yl)-4-methylphenyl)-3-(trifluoromethyl)benzamide] | comparable to those of GNF-7 | increased cleaved PARP level | notably increased | over 50% |
